Results published in US6486160B1, “Pharmaceutical composition for modulating immunity” (Toray Industries, Inc., priority 2001, dated 2002).

How the values were obtained:
Assay type in all cases: in vivo, human
[1] = system: CRP; assay: CRP value by latex agglutination assay in a patient given Pimobendan orally
Protocol: (§1) 2-(4-Methoxyphenyl)-5-(5-methyl-3-oxo-4,5-dihydro-2H-6-pyridazinyl)-benzimidazole (hereunder referred to as imobendan was orally administered to a patient who suffered from heart failure while malignant articular rheumatism set in as a complication and the CRP value thereof was determined with the elapse of time.
The CRP value was determined by the latex agglutination assay disclosed in Senju Osamu, et al.: J. Clin. Lab. Immunol. 19:99-103(1986) according to a method identical to that disclosed in Claus David R. et al.: J. Lab. Clin. Med. 87:120-128(1976).
When Pimobendan was administered to the patient in a dose of 1.25 mg, the CRP value thereof was reduced and therefore, the compound was administered in a dose of 1.25 mg twice a day on and after the next day (this was defined to be the day at which the administration was initiated).
(§2) Thus, the administration of Pimobendan was discontinued. Thereafter, Pimobendan was again administered to the patient in a dose of 1.25 mg twice a day to confirm the effect of the drug to reduce the CRP value.

[2] = system: heart function; assay: Echocardiography of the patient; settings: patient with heart failure, 1.25 mg twice a day
[3] = system: inflammation due to the malignant articular rheumatism; assay: Inflammation due to malignant articular rheumatism in the patient; settings: re-administration, 1.25 mg twice a day
Protocol: as §1, §2

COc1ccc(-c2nc3ccc(C4=NNC(=O)CC4C)cc3[nH]2)cc1 (centres unmarked) [Pimobendan, 2-(4-Methoxyphenyl)-5-(5-methyl-3-oxo-4,5-dihydro-2H-6-pyridazinyl)-benzimidazole]
CRP value (change) ([1]; after first dose of 1.25 mg, value prior to administration 4.7 mg/dl): reduced | CRP Value ([1]; day 89, in parentheses: day at which Pimobendan was not administered (discontinued)): (5.0) mg/dl | CRP Value ([1]; day 90, in parentheses: day at which Pimobendan was not administered (discontinued)): (2.7) mg/dl | CRP Value ([1]; day 97, in parentheses: day at which Pimobendan was not administered (discontinued)): (2.4) mg/dl | CRP Value ([1]; day 105, in parentheses: day at which Pimobendan was not administered (discontinued)): (3.6) mg/dl | CRP Value ([1]; day 113, in parentheses: day at which Pimobendan was not administered (discontinued)): (3.2) mg/dl | CRP Value ([1]; day 119, in parentheses: day at which Pimobendan was not administered (discontinued)): (2.9) mg/dl | CRP Value ([1]; patient, again 1.25 mg twice a day, day 126 after initiating the administration): 3.0 mg/dL | CRP Value ([1]; patient, again 1.25 mg twice a day, day 127 after initiating the administration): 4.3 mg/dL | CRP Value ([1]; patient, again 1.25 mg twice a day, day 130 after initiating the administration): 3.8 mg/dL | CRP Value ([1]; patient, again 1.25 mg twice a day, day 132 after initiating the administration): 2.1 mg/dL | CRP Value ([1]; patient, again 1.25 mg twice a day, day 137 after initiating the administration): 1.3 mg/dL | CRP Value ([1]; patient, oral 1.25 mg twice a day, day 12 after initiating the administration): 1.7 mg/dL | CRP Value ([1]; patient, oral 1.25 mg twice a day, day 28 after initiating the administration): 6.1 mg/dL | CRP Value ([1]; patient, oral 1.25 mg twice a day, day 61 after initiating the administration): 3.0 mg/dL | CRP Value ([1]; patient, oral 1.25 mg twice a day, day 71 after initiating the administration): 3.3 mg/dL | CRP value (change) ([1]; re-administration, 1.25 mg twice a day after discontinuation): again reduced | CRP value (overall conclusion from Table 1) ([1]; whole test period): reduce the CRP value to a clinically satisfactory level | heart function [2]: improved | inflammation due to the malignant articular rheumatism [3]: recovered
